The conditions of series [1]: STINGa on its own; ref [11]; cited from earlier work.
A further series concerns CT26 tumors. Kind of series: Treatment of small (100 mm^3) CT26 tumors in Balb/c mice. The format is in vivo, mouse. As to conditions: single injection, same molar dose level as pHLIP-STINGa. On the procedure: On day 1, when tumors reached size of 100 mm^3 (“small tumors”) or 400-700 mm^3 (“large tumors”), mice were randomized into groups, body weight was measured and agents including pHLIP(Laa)-STINGa, pHLIP(Daa)-STINGa, pHLIP(Laa), STINGa (diABZI) or vehicle were given as a single intraperitoneal (IP) or intravenous (IV) injection. Vehicle, pHLIP(Laa), STINGa (diABZI) and pHLIP(Laa)-STINGa were given as a single IP injection of 100 μM 300 µl. pHLIP(Daa)-STINGa was given as a single IV injection of 200 μM 150 μl. The compounds were dissolved in DMSO as a stock solution and transferred to 20% PEG400 in saline containing 0.9% sodium chloride (vehicle). The residual DMSO in the final solution injected into animals was less than 2%. Tumor volume and body weight were measured 3 times per week throughout the study. Measurements of tumors were performed using calipers, and the tumor volume (V) was calculated with the formula: […]
where L is the length and W is the width of the measured tumor. Mice were removed from the study and euthanized when the tumor volume was greater than 2000 mm^3.

A value given as a limit tells only on which side of the number the result lay.

With diABZI [STINGa], the half-life in series [1] was 1.4 h. In addition, the “time by which all animals developed tumors” value with CT26 tumors is recorded as no more than 35 days p.i.

Source of the values: PMC9622777, “Eradication of tumors and development of anti-cancer immunity using STINGa targeted by pHLIP” (Frontiers in Oncology, 2022).
